Measured values published in publication PMC6597546, “Identification of a potent benzoxaborole drug candidate for treating cryptosporidiosis” (Nature Communications, 2019).

Tests used:
[1] = tested on: CYP450 (2B6, 1A2, 2C9, 2C19, 2D6, 3A4); experiment: CYP450 inhibition, 6 isoforms; type: in vitro ADME; conditions: @ 10 µM
[2] = Single-dose oral and intravenous murine PK; type: in vivo, female CD-1 mice; conditions: female, mouse, plasma, CD-1 mice
Description: Single-dose oral and intravenous murine PK studies were performed by WuXi Biologics (Wuxi, China) in female CD-1 mice in compliance with animal care guidelines. […] Single-dose oral calf PK studies were performed at the University of Vermont in compliance with animal care guidelines and with approval from the University of Vermont Institutional Animal Care and Use Committee. […] Doses were squirted into the calves’ mouths during interruptions in bottle feeding. Fecal samples were collected at the indicated times by manual anal stimulation. […] Fecal AN7973 was measured by extracting AN7973 from homogenized feces with acetonitrile. For this, feces were added to 4 volumes of acetonitrile (4 mL per g), mixed by vortexing for 5 min at room temperature, and then centrifuged. […] The fecal extraction method was validated with a standard curve of compound added to control feces. […] Non-compartmental analysis of the mean concentration-time profiles was performed using Phoenix version 6.4 (Pharsight Corporation, Mountain View, CA, USA). Concentrations below the limit of quantitation were assigned values of zero for generation of mean concentrations. Predictions of multidose exposures were generated by non-parametric superposition of the single-dose PK data using Phoenix version 6.4 (Supplementary Fig. 5).

Cytotoxicity THP-1 (3d) = type: cell-based; conditions: human, THP-1 cells, 25 µM highest concentration tested
[3] = tested on: C. parvum intracellular DNA synthesis; experiment: EdU incorporation DNA replication assay; type: cell-based, Cryptosporidium parvum; conditions: 2 × EC90 = 0.42 µM
Description: The invasion assay, DNA replication assay, asexual to sexual stage conversion, and time-kill curve assays were performed using fluorescence microscopy to enumerate parasites and host cell nuclei. Staining protocols are individually described for each assay. Unless noted otherwise, the details of image acquisition were as follows. An inverted Nikon Eclipse Ti2000 microscope with an automated stage and Perfect Focus was used with NIS-Elements Advanced Research software (Nikon, USA, version 4.30.01) to image the wells. The microscope was programmed to focus on the center of each well and then take a 3 × 3 composite image per well using a 20 × (0.45 NA) objective. Images were exported as .tiff files and parasites and host nuclei counted using a custom macro on ImageJ (National Institutes of Health, version 1.52a). Data were analyzed using Microsoft Excel and GraphPad Prism (version 6.01). Measurement of DNA replication was used as a surrogate marker of Cryptosporidium development within HCT-8 cells. […] Images were acquired by focusing on the parasite focal plane, which is on top of the host cell monolayer, using a ×40 objective (0.7 NA) and EdU and lectin numbers were quantified using ImageJ software.

CYP3A4 = CYP3A4 (Homo sapiens, UniProt P08684); experiment: CYP450 inhibition 3A4; type: in vitro ADME
Sequence of CYP3A4 (P08684 whole entry): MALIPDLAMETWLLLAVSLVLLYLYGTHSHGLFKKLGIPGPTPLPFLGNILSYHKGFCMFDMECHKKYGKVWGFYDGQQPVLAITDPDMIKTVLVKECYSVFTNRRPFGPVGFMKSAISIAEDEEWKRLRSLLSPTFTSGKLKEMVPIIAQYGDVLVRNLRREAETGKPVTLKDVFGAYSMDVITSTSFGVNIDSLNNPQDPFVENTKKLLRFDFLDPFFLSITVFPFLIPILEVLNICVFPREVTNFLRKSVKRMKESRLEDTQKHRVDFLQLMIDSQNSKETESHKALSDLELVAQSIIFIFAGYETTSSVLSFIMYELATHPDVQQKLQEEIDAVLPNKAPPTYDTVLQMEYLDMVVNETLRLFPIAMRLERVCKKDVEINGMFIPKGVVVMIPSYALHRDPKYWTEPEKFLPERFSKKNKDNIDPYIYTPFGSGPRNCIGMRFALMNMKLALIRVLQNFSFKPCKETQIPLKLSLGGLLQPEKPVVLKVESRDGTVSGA

Cytotoxicity Jurkat (3d) = type: cell-based; conditions: human, Jurkat cells, 25 µM highest concentration tested
[4] = tested on: Escherichia coli and Salmonella typhimurium; experiment: AMES bacterial reverse mutation assay; conditions: five strains with and without S9, up to 5000 µg per plate
Description: In vitro safety profiling studies were conducted by Ricerca Biosciences (Taipei, Taiwan) and WuXi AppTec (Suzhou, China). Ricerca performed a Lead Profiling and Adverse Reaction Enzyme panel of 109 off-target enzymes and receptors. This included the hERG K+ ion channel, which is associated with cardiac tachyarrhythmias, and used a radioligand binding competition format with 10 µM test compound for 1 h at 25 °C. For the enzyme and receptor panel, competitive inhibition at 10 µM of test compound was the most common assay format. The AMES bacterial reverse mutation assay detects point mutations in Escherichia coli and Salmonella typhimurium as an indicator of mutagenic activity. Bacterial strains were obtained from Molecular Toxicology (Boone, NC).

[5] = Rat toxicokinetics (TK) study; type: in vivo, Sprague-Dawley male rats; conditions: for AUC / Cmax: po, 80 mg/kg
Description: A repeated oral dose toxicity and separate toxicokinetics (TK) study were performed in male rats by WuXi AppTec Company (Suzhou, China). […] All rat studies were performed using ∼8-week-old Sprague-Dawley male rats (Rattus novegicus)/Crl: CD[SD] VAF/Plus weighing between 243.22 and 276.57 g at the start of compound dosing. […] Serum was collected from vehicle-control animals at 1 h and 4 h after dosing on days 1 and 7.

[6] = 2 mg/kg, intravenous 2 mg per kg
[7] = male, Sprague-Dawley, rat, serum, rat, 80 mg·kg-1 oral once daily, Day 1
[8] = male, Sprague-Dawley, rat, serum, rat, 80 mg·kg-1 oral once daily, Day 7

For CC1(C)OB(O)c2cc(NC(=O)c3ccc(-n4cccn4)cc3Cl)ccc21 [AN7973], the “CYP450 inhibition (in 6 isoforms – 2B6, 1A2, 2C9, 2C19, 2D6, 3A4)” value [1] was “Negative”, the AUC(0-inf) [2, 6] was 49.7 µg·h/mL and the Cmax [2, 6] was 6820 ng/mL. It also gave a clearance [2, 6] of 0.667 mL/min/kg, a half-life [2, 6] of 6 h and an AUC(0-inf) ([2]; 10 mg/kg, oral 10 mg per kg) of 92.7 µg·h/mL. For the same compound, the Cmax ([2]; 10 mg/kg, oral 10 mg per kg) was 8630 ng/mL, the half-life ([2]; 10 mg/kg, oral 10 mg per kg) was 6.6 h and the bioavailability ([2]; 10 mg/kg, oral 10 mg per kg, read-out: bioavailability F) was 37%. The IC50 at 3 d (Cytotoxicity THP-1 (3d)) was over 25 µM, the “effect on intracellular DNA synthesis (EdU incorporation)” value [3] was “arrested new DNA synthesis” and the inhibition at 10 µM (CYP3A4) was 1%. For the same compound, the IC50 at 3 d (Cytotoxicity Jurkat (3d)) was over 25 µM, the “Ames test for mutagenic potential” value [4] was “negative” and the compound accumulation ([5]; 80 mg per kg once daily, 7 days) was “No compound accumulation was observed”. For the same compound, the AUC [5, 7] was 170 µg·h/mL, the Cmax [5, 7] was 11600 ng/mL and the AUC [5, 8] was 155 µg·h/mL. The Cmax [5, 8] was 10100 ng/mL, the Tmax ([5]; male, Sprague-Dawley, serum, rat, 80 mg·kg-1 oral once daily, Day 1) was 8 h and the half-life ([5]; male, Sprague-Dawley, serum, rat, 80 mg·kg-1 oral once daily, Day 7) was 22.7 h.
